Molecules are shown by their SMILES.

A short description of the series: Human HepG2 cell viability assay in 384 well format. In kind it is toxicity, cell-based. Also noted: dose 125 nL, time 70.5 hour; cytotoxicity at 70.5 h: concentration not given beside the values. To be noted: HepG2 cells, read-out: Inhibition.
Consider `CCC(C)CS(=O)(=O)NC(=O)C1CC1` (stereo not given), for which the cytotoxicity at 70.5 h is -5.06%.

With `CS(=O)(=O)N1CC(c2nc[nH]n2)c2cc(C(=O)NC3CCCC3)ccc21` (stereo not given), the cytotoxicity at 70.5 h was -20.4%.

As to `Cc1nc(C(=O)N2CCN(S(C)(=O)=O)CC2)c(-c2cccc(F)c2)s1`, the cytotoxicity at 70.5 h was found to be 9.8%.

As for `O=C(NCc1cn2c(n1)SCC2)c1cn(CCN2CCCCC2)nn1`, the cytotoxicity at 70.5 h amounted to 17.2%.

For `Cn1cc(NC(=O)Cn2c(CS(C)(=O)=O)nc3ccccc32)cn1`, the cytotoxicity at 70.5 h is -6.35%.

In the case of `CC(=O)Nn1c(C)cc(CN2CCCN(Cc3ccncc3)CC2)c1C`, the cytotoxicity at 70.5 h was -0.666%.

For `Cc1nc(C(C)NC(=O)NCc2nccn2CC(C)C)cs1` (stereo not given), the cytotoxicity at 70.5 h worked out at 4.05%.

Consider `CN(Cc1nc(-c2cccnc2)no1)C(=O)c1cccn1C`, for which the cytotoxicity at 70.5 h was 53.7%.

Turning to `Cc1ncc2c(n1)CN(Cc1nc(-c3ccco3)oc1C)CC2`, the cytotoxicity at 70.5 h is -10.5%.

Consider `Cn1cc(CNC2CCCOc3c(Cl)cccc32)cn1` (stereo not given), for which the cytotoxicity at 70.5 h turned out to be 3.49%.

With `CN(Cc1cc(C2CC2)on1)C(=O)CN1C(=O)OC(C)(C)C1=O`, the cytotoxicity at 70.5 h stood at 0.377%.

As for `COc1cc2c(nn1)CCN(CC(O)COc1ccc(C#N)cc1)C2` (stereo not given), the cytotoxicity at 70.5 h stood at 17.8%.

Turning to `Cc1ccc(C(CNCC2CC2)N2CCOCC2)s1` (stereo not given), the cytotoxicity at 70.5 h worked out at 11.7%.

In the case of `Cc1nccn1C1CCCN(C(=O)c2ccc3nncn3c2)C1` (stereo not given), the cytotoxicity at 70.5 h is -4.02%.

For `CCS(=O)(=O)NC[C@]12COC[C@H]1CN(Cc1cc(C)on1)C2`, the cytotoxicity at 70.5 h is -6.04%.

In the case of `CC(C)(C)OCCN(Cc1cccc(O)c1)C1CCC(O)CC1` (stereo not given), the cytotoxicity at 70.5 h was -3.74%.

Regarding `O=C(NCCc1ccccn1)Nc1cc(C(F)(F)F)c[nH]c1=O`, the cytotoxicity at 70.5 h is -2.62%.

On to `COc1ccc(Nc2c[nH]c(=O)[nH]c2=O)cc1`, for which the cytotoxicity at 70.5 h was determined as 4.35%.

For `CC1CCCCN1C(=O)CCn1cnc2sccc2c1=O` (stereo not given), the cytotoxicity at 70.5 h is -5.84%.

Consider `CCSc1ncc(CN2CCC(O)(CN3CCOCC3)C(C)(C)C2)cn1` (stereo not given), for which the cytotoxicity at 70.5 h amounted to 38.5%.

With `Cc1ccc(OC2(C(=O)O)CCN(C(=O)c3ccc(F)cc3)CC2)cn1`, the cytotoxicity at 70.5 h was -7.2%.

With `Cc1ccc(F)c(C(=O)N2C[C@@H](C(=O)O)[C@H](c3ccccc3)C2)c1Cl`, the cytotoxicity at 70.5 h amounted to 1.54%.

For `CCC(C)Sc1nncn1-c1ccc(OC)nc1` (stereo not given), the cytotoxicity at 70.5 h was determined as 5.95%.

With `CCN(CC)C(=O)CSc1ncc[nH]1`, the cytotoxicity at 70.5 h was -8.92%.

Consider `O=C(COCc1ccccc1)N1CCN(Cc2ccccc2F)C(=O)C1`, for which the cytotoxicity at 70.5 h is -9.08%.

With `COc1ccc(C(=O)NCc2cc(N3CCOCC3)ncn2)o1`, the cytotoxicity at 70.5 h was found to be 17.5%.

In the case of `COCc1ccc(C(=O)N2CCCN(Cc3ccc(F)cc3)CC2)s1`, the cytotoxicity at 70.5 h came to 30.1%.

On to `Cc1ccc(CNCCOc2ccc(S(C)(=O)=O)cc2)cc1`, for which the cytotoxicity at 70.5 h turned out to be 11%.

`O=C(COCc1nc(-c2ccncc2)no1)N1CCCCCC1`: the cytotoxicity at 70.5 h was -5.87%.

With `CCn1ncc2[nH]c(-c3cc(OC)c(OC)cc3OC)nc21`, the cytotoxicity at 70.5 h came to 29.7%.

For `c1coc(CN2CCO[C@H]3[C@H](OCC4CCCC4)CC[C@@H]32)c1`, the cytotoxicity at 70.5 h was determined as 11.8%.

`CCCN1CCC(c2nc3ccc(NCc4cccnc4)cn3n2)CC1`: the cytotoxicity at 70.5 h was -10.3%.

As to `CCN(CC)CC(=O)N1CCN(CCc2ccncc2)CC1`, the cytotoxicity at 70.5 h was -9.33%.

Take `CN(C)CCN1CCO[C@H]2CCN(C(=O)c3cccs3)CC[C@@H]21`: the cytotoxicity at 70.5 h stood at 32.1%.

Regarding `CCc1ccc(S(=O)(=O)N2Cc3c(CN(C)C)nn(C)c3C2)cc1`, the cytotoxicity at 70.5 h was -5.86%.

For the compound `COCc1nc(CNC2CSCCSC2)no1`, the cytotoxicity at 70.5 h is -11.5%.

For `Cc1cccc(CN2C[C@@H]3COC[C@]3(COc3ccc(C#N)cn3)C2)n1`, the cytotoxicity at 70.5 h is -0.115%.

Take `CN1CCCC(c2cccc(CCC(=O)NCc3ccccn3)n2)C1` (stereo not given): the cytotoxicity at 70.5 h was -7.64%.

`Cc1cc(CN2CCN(CC(O)c3ccc(Cl)cc3)CC2)no1` (stereo not given): the cytotoxicity at 70.5 h was -11.9%.

`Cc1nn(C)c(C)c1C1COCCN1C(=O)c1ccccc1` (stereo not given): the cytotoxicity at 70.5 h is 22.5%.

Take `Cc1nc(COc2ccc(OC(C)C(N)=O)cc2)oc1C` (stereo not given): the cytotoxicity at 70.5 h was -0.152%.

For the compound `O=C1N(CCCc2ccccc2)CCCC1(O)CNCc1ccccc1` (stereo not given), the cytotoxicity at 70.5 h is -10.4%.

Regarding `O=C(CCn1cccn1)NS(=O)(=O)N1CCCc2ccccc21`, the cytotoxicity at 70.5 h was -8.67%.

As to `COc1c(C(=O)NC(C)Cc2ccccc2Cl)c(C)nn1C` (stereo not given), the cytotoxicity at 70.5 h was determined as 3.5%.

Regarding `CC(C)c1ccc2c(c1)CCCN2C(=O)CN(C)S(C)(=O)=O`, the cytotoxicity at 70.5 h is -94.4%.

With `COc1cc(CNC(=O)C(C)SC)cc(Br)c1OC` (stereo not given), the cytotoxicity at 70.5 h is -8.14%.

With `CS(=O)(=O)NCCC(=O)N1CCN(S(=O)(=O)c2ccc(Br)cc2)CC1`, the cytotoxicity at 70.5 h was found to be 6.55%.

On to `COc1ccc(-n2nc(C(C)=O)c(C(C)=O)c2C)cc1Cl`, for which the cytotoxicity at 70.5 h came to 17.1%.

For the compound `c1ccc(CN2CCC3(CC2)CCN(Cc2cccs2)C3)nc1`, the cytotoxicity at 70.5 h was determined as 0.064%.

Regarding `CN1C[C@@H](NC(=O)CC(C)(C)C)C[C@H]1c1nc(-c2cnccn2)no1`, the cytotoxicity at 70.5 h is -0.594%.

`CN(Cc1ccncc1)C1COC2(CCN(Cc3nccn3C)CC2)C1` (stereo not given): the cytotoxicity at 70.5 h was -8.93%.

Turning to `Cc1noc(C)c1CN(C)C(=O)NC1CCOCC1`, the cytotoxicity at 70.5 h came to 21%.

Turning to `CC(C)(C)C(=O)NCCCc1nc2ccccc2[nH]1`, the cytotoxicity at 70.5 h is -11.6%.

On to `CN(C(=O)c1ccc2c(c1)nc(N1CC[C@H](O)C1)n2C)C1CCSCC1`, for which the cytotoxicity at 70.5 h stood at 24.9%.

`O=C(CS(=O)(=O)c1ncccc1Cl)NC1CCCc2ccccc21` (stereo not given): the cytotoxicity at 70.5 h was 12%.

For `CCc1ccc(C(=O)N2CCN(CC(O)CC)CC2)o1` (stereo not given), the cytotoxicity at 70.5 h stood at 46.5%.

On to `CCOCC(=O)N1CCCn2c(CN3CCOCC3)nnc2C1`, for which the cytotoxicity at 70.5 h came out at 2.86%.

For the compound `O=C1CC(C(=O)NCc2ccccc2Oc2ccccc2F)CCN1` (stereo not given), the cytotoxicity at 70.5 h is -1.83%.

Turning to `CCn1cnnc1CNC(=O)N1CCN(c2ccccc2Cl)CC1`, the cytotoxicity at 70.5 h is -3.38%.

For the compound `Cc1cc(C(=O)NCC(C)C)c2c(C3CCCN3)noc2n1` (stereo not given), the cytotoxicity at 70.5 h is -5.52%.

With `CCN(Cc1cccc(NC(=O)COC)c1)C(C)=O`, the cytotoxicity at 70.5 h amounted to 27.5%.

With `COc1ccc(CC2(CO)CCN(c3cc(C#N)ccn3)CC2)cc1`, the cytotoxicity at 70.5 h was -3.42%.

Take `CC(C)C(=O)NCc1cc(Br)ccc1F`: the cytotoxicity at 70.5 h was -9.54%.

For the compound `c1cc2c(cc1C1CCCN1Cc1nnnn1C1CC1)OCCO2` (stereo not given), the cytotoxicity at 70.5 h was found to be 13.7%.

For the compound `CC(C(=O)Nc1cccc(F)c1)N(C)CCN1CCOCC1` (stereo not given), the cytotoxicity at 70.5 h was -4.4%.

For `CCc1cc(NCCc2cccnc2)n2nc(C)c(C)c2n1`, the cytotoxicity at 70.5 h is -5.81%.

On to `C[C@]1(O)CN(Cc2ncccc2F)CC[C@@H]1Oc1ccccc1`, for which the cytotoxicity at 70.5 h was -7.87%.

On to `Cc1ccc(-c2nc(CN3CCC(N4CCNC4=O)CC3)co2)cc1`, for which the cytotoxicity at 70.5 h is -0.587%.

For the compound `Cc1nn(C)c2nc(N(CCN(C)C)C3CCCC3)sc12`, the cytotoxicity at 70.5 h was 2.63%.

With `O=C(NCCO)Nc1c(F)cc(F)cc1-c1ccccc1`, the cytotoxicity at 70.5 h was -10.7%.

In the case of `O=C([C@H]1CC[C@@H]2[C@@H](CCN2c2ncccn2)O1)N1CCCCO1`, the cytotoxicity at 70.5 h was -1.66%.

As for `Cc1ccc(Sc2nccn(C)c2=O)cc1`, the cytotoxicity at 70.5 h is -3.35%.

Take `Cc1ccc(CN2C[C@@H](N(C)C)[C@H]3OCCC[C@H]32)o1`: the cytotoxicity at 70.5 h was 1.56%.

Regarding `COCCN1CCc2cc(C(=O)O)c(NCC3CC3)nc2CC1`, the cytotoxicity at 70.5 h is 22.8%.

`CCCNC(=O)c1cccc2ncccc12`: the cytotoxicity at 70.5 h was -4.07%.

Regarding `O=C(NC1CCCN(c2ncccn2)C1)c1cn2ccccc2n1` (stereo not given), the cytotoxicity at 70.5 h is -6.6%.

Regarding `COC1CCN(C(=O)Cn2nc(C)cc2C)CC1`, the cytotoxicity at 70.5 h is -3.13%.

As for `O=C(c1ccnnc1)N1C[C@H]2CCC[C@@]2(COCc2ccccn2)C1`, the cytotoxicity at 70.5 h was -3.81%.

Turning to `CC(C)(O)CNc1ccc(C#N)c(C(F)(F)F)c1`, the cytotoxicity at 70.5 h was -1.99%.

With `CC(=O)N1CCc2c(nc(N(C)C)nc2N(C)CCC2CCCCO2)C1` (stereo not given), the cytotoxicity at 70.5 h amounted to 11.3%.

For the compound `CN(C)c1nc2c(c(N3CCCC3)n1)CCN(C(=O)c1ccc[nH]1)CC2`, the cytotoxicity at 70.5 h was 25.5%.

Consider `Cc1noc(C2CCN(C(=O)c3cc(Cl)c(Cl)n3C)CC2)n1`, for which the cytotoxicity at 70.5 h is -2.97%.

On to `CCCN1CCC(Cc2noc(-c3[nH]cnc3C)n2)CC1`, for which the cytotoxicity at 70.5 h was determined as 6.08%.

Consider `COc1ccccc1C1CCN(c2ccc3cc[nH]c3n2)CC1`, for which the cytotoxicity at 70.5 h was -7.33%.

Regarding `O=C(NC1CCCC1)[C@H]1CC[C@@H]2[C@@H](CCN2c2ncc(F)cn2)O1`, the cytotoxicity at 70.5 h is 13.4%.

Take `CCN(C(=O)CS(=O)(=O)Cc1cc(Cl)c2c(c1)OCCCO2)C1CC1`: the cytotoxicity at 70.5 h was 0.0743%.

For the compound `COc1ccc(OC)c(C(C)NC(=O)c2nn(C)c(C)c2Br)c1` (stereo not given), the cytotoxicity at 70.5 h was determined as 27.1%.

As to `CCSc1ccc(C(=O)N2CCCC2C(=O)N2CCOCC2)cn1` (stereo not given), the cytotoxicity at 70.5 h is -12.5%.

With `Cn1cc(NS(=O)(=O)CCOc2ccc(F)cc2)cn1`, the cytotoxicity at 70.5 h is -4.23%.

With `O=C(CCCN1CCCCC1)N1CCC(c2nnc[nH]2)CC1`, the cytotoxicity at 70.5 h is -4.84%.

For `Cc1cccc(N2CCN(CCC(=O)NCc3cccnc3)CC2)c1`, the cytotoxicity at 70.5 h was -0.687%.

For the compound `CCCn1ncc(CN2CCCCC2CCCOC)c1C` (stereo not given), the cytotoxicity at 70.5 h was -2.59%.

Regarding `CN1C(=O)[C@H]2CC[C@@H]1CN(Cc1cccc(OCc3ccccn3)c1)C2`, the cytotoxicity at 70.5 h is -11.5%.

As for `Cc1ccsc1C(=O)NCc1ccnc(OCC(F)(F)F)c1`, the cytotoxicity at 70.5 h is -5.25%.

Take `OCc1cc(C2CCCN2c2ncccn2)n[nH]1` (stereo not given): the cytotoxicity at 70.5 h was 0.468%.

For `CC(=O)N1C[C@H]2CN(CC3CC3)C(=O)[C@H]2C1`, the cytotoxicity at 70.5 h was -0.948%.

Take `COc1cc(CNC(C)c2nnc3n2CCC3)cc(OC)c1` (stereo not given): the cytotoxicity at 70.5 h is -9.55%.

For `CC(C)CS(=O)(=O)N1CCC2(CN(c3cccc(F)c3)C(=O)CN2C)C1` (stereo not given), the cytotoxicity at 70.5 h was 19.6%.

Regarding `C=C(C)COc1ccccc1CN1CCC(NC(C)=O)CC1`, the cytotoxicity at 70.5 h amounted to 25.2%.

`Cc1cc(N(C)CCCn2cccn2)nc(N)n1`: the cytotoxicity at 70.5 h is -12.7%.

The values are drawn from ChEMBL document CHEMBL3507680, “University of Dundee, Gates Library screen for HepG2 cell viability”.
